What was measured:
barnyard grass [1] = assay: Test Example 3: herbicidal effect by foliage application, Wagner pot (Table 18, symbol H); type: in vivo, barnyard grass (Echinochloa crus-galli); conditions: 320 g/ha
Outline: (§1)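 Plants were sown in alluvial soil held under 0.1–0.5 cm standing water and grown 14 days in a greenhouse at 25–30 °C. An emulsifiable formulation, water-diluted to the set dose, was then sprayed onto the foliage, and effects were scored three weeks later using previously defined criteria.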

Chinese sprangletop = assay: Test Example 3: herbicidal effect by foliage application, Wagner pot (Table 18, symbol D); type: in vivo, chinese sprangletop (Leptochloa chinensis); conditions: 320 g/ha
Outline: as §1

rice flat sedge = assay: Test Example 3: herbicidal effect by foliage application, Wagner pot (Table 18, symbol E); type: in vivo, rice flat sedge (Cyperus iria); conditions: 320 g/ha
Outline: as §1

southern crabgrass = assay: Test Example 5: herbicidal effect by foliage application, plastic box (Table 20, symbol F); type: in vivo, southern crabgrass (Digitaria ciliaris); conditions: foliage application after 14-day growth, evaluated three weeks after application; for herbicidal effect on F: southern crabgrass (evaluation grade 0-5): 320 g/ha; for Herbicidal effect by foliage application, F: southern crabgrass: amount of applied herbicide 320 g/ha
Outline: (§2)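 Plants sown in sterilized diluvial soil and grown 14 days in a greenhouse at 25° C to 30° C, then sprayed on the foliage with the compound's emulsion diluted in water to a predetermined herbicide amount. Injury to weeds and crops scored three weeks after application on a visual rating scale.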

green foxtail = assay: Test Example 5: herbicidal effect by foliage application, plastic box (Table 20, symbol G); type: in vivo, green foxtail (Setaria viridis); conditions: foliage application after 14-day growth, evaluated three weeks after application; for herbicidal effect on G: green foxtail (evaluation grade 0-5): 320 g/ha; for Herbicidal effect by foliage application, G: green foxtail: amount of applied herbicide 320 g/ha
Outline: as §2

barnyard grass [2] = assay: Test Example 5: herbicidal effect by foliage application, plastic box (Table 20, symbol H); type: in vivo, barnyard grass (Echinochloa crus-galli); conditions: foliage application after 14-day growth, evaluated three weeks after application; for herbicidal effect on H: barnyard grass (evaluation grade 0-5): 320 g/ha; for Herbicidal effect by foliage application, H: barnyard grass: amount of applied herbicide 320 g/ha
Outline: as §2

wild oat = assay: Test Example 5: herbicidal effect by foliage application, plastic box (Table 20, symbol I); type: in vivo, wild oat (Avena fatua); conditions: foliage application after 14-day growth, evaluated three weeks after application; for herbicidal effect on I: wild oat (evaluation grade 0-5): 320 g/ha; for Herbicidal effect by foliage application, I: wild oat: amount of applied herbicide 320 g/ha
Outline: as §2

blackgrass = assay: Test Example 5: herbicidal effect by foliage application, plastic box (Table 20, symbol J); type: in vivo, blackgrass (Alopecurus myosuroides); conditions: foliage application after 14-day growth, evaluated three weeks after application; for herbicidal effect on J: blackgrass (evaluation grade 0-5): 320 g/ha; for Herbicidal effect by foliage application, J: blackgrass: amount of applied herbicide 320 g/ha
Outline: as §2

Italian ryegrass = assay: Test Example 5: herbicidal effect by foliage application, plastic box (Table 20, symbol K); type: in vivo, Italian ryegrass (Lolium multiflorum); conditions: foliage application after 14-day growth, evaluated three weeks after application; for herbicidal effect on K: Italian ryegrass (evaluation grade 0-5): 320 g/ha; for Herbicidal effect by foliage application, K: Italian ryegrass: amount of applied herbicide 320 g/ha
Outline: as §2

windgrass = assay: Test Example 5: herbicidal effect by foliage application, plastic box (Table 20, symbol L); type: in vivo, windgrass (Apera spica-venti); conditions: foliage application after 14-day growth, evaluated three weeks after application; for herbicidal effect on L: windgrass (evaluation grade 0-5): 320 g/ha; for Herbicidal effect by foliage application, L: windgrass: amount of applied herbicide 320 g/ha
Outline: as §2

velvetleaf = assay: Test Example 5: herbicidal effect by foliage application, plastic box (Table 20, symbol M); type: in vivo, velvetleaf (Abutilon theophrasti); conditions: foliage application after 14-day growth, evaluated three weeks after application; for herbicidal effect on M: velvetleaf (evaluation grade 0-5): 320 g/ha; for Herbicidal effect by foliage application, M: velvetleaf: amount of applied herbicide 320 g/ha
Outline: as §2

redroot pigweed = assay: Test Example 5: herbicidal effect by foliage application, plastic box (Table 20, symbol N); type: in vivo, redroot pigweed (Amaranthus retroflexus); conditions: foliage application after 14-day growth, evaluated three weeks after application; for herbicidal effect on N: redroot pigweed (evaluation grade 0-5): 320 g/ha; for Herbicidal effect by foliage application, N: redroot pigweed: amount of applied herbicide 320 g/ha
Outline: as §2

lambsquarters = assay: Test Example 5: herbicidal effect by foliage application, plastic box (Table 20, symbol O); type: in vivo, lambsquarters (Chenopodium album); conditions: foliage application after 14-day growth, evaluated three weeks after application; for herbicidal effect on O: lambsquarters (evaluation grade 0-5): 320 g/ha; for Herbicidal effect by foliage application, O: lambsquarters: amount of applied herbicide 320 g/ha
Outline: as §2

chickweed = assay: Test Example 5: herbicidal effect by foliage application, plastic box (Table 20, symbol P); type: in vivo, common chickweed (Stellaria media); conditions: foliage application after 14-day growth, evaluated three weeks after application; for herbicidal effect on P: chickweed (evaluation grade 0-5): 320 g/ha; for Herbicidal effect by foliage application, P: chickweed: amount of applied herbicide 320 g/ha
Outline: as §2

persian speedwell = assay: Test Example 5: herbicidal effect by foliage application, plastic box (Table 20, symbol R); type: in vivo, Persian speedwell (Veronica persica); conditions: foliage application after 14-day growth, evaluated three weeks after application; for herbicidal effect on R: persian speedwell (evaluation grade 0-5): 320 g/ha; for Herbicidal effect by foliage application, R: persian speedwell: amount of applied herbicide 320 g/ha
Outline: as §2

Row | Structure (SMILES) | herbicidal effect on barnyard grass (H) (barnyard grass [1]) | herbicidal effect on Chinese sprangletop (D) (Chinese sprangletop) | herbicidal effect on rice flat sedge (E) (rice flat sedge) | herbicidal effect on F: southern crabgrass (evaluation grade 0-5) (southern crabgrass) | herbicidal effect on G: green foxtail (evaluation grade 0-5) (green foxtail) | herbicidal effect on H: barnyard grass (evaluation grade 0-5) (barnyard grass [2]) | herbicidal effect on I: wild oat (evaluation grade 0-5) (wild oat) | herbicidal effect on J: blackgrass (evaluation grade 0-5) (blackgrass) | herbicidal effect on K: Italian ryegrass (evaluation grade 0-5) (Italian ryegrass) | herbicidal effect on L: windgrass (evaluation grade 0-5) (windgrass) | herbicidal effect on M: velvetleaf (evaluation grade 0-5) (velvetleaf) | herbicidal effect on N: redroot pigweed (evaluation grade 0-5) (redroot pigweed) | herbicidal effect on O: lambsquarters (evaluation grade 0-5) (lambsquarters) | herbicidal effect on P: chickweed (evaluation grade 0-5) (chickweed) | herbicidal effect on R: persian speedwell (evaluation grade 0-5) (persian speedwell) | Herbicidal effect by foliage application, F: southern crabgrass (southern crabgrass) | Herbicidal effect by foliage application, G: green foxtail (green foxtail) | Herbicidal effect by foliage application, H: barnyard grass (barnyard grass [2]) | Herbicidal effect by foliage application, I: wild oat (wild oat) | Herbicidal effect by foliage application, J: blackgrass (blackgrass) | other results
1 | Cc1nn(C)c(=O)c(-c2c(-c3ccc(OC(F)F)cc3)sc3cc(Cl)ccc23)c1O [3-147] | 4 (Herbicidal rate of 70% or more and less than 90%) | 2 (Herbicidal rate of 20% or more and less than 40%) | 3 (Herbicidal rate of 40% or more and less than 70%) | 3 (Herbicidal rate of 40% or more and less than 70%) | 5 (Herbicidal rate of 90% or more (almost completely withered)) | 3 (Herbicidal rate of 40% or more and less than 70%) | 3 (Herbicidal rate of 40% or more and less than 70%) | 5 (Herbicidal rate of 90% or more (almost completely withered)) | 3 (Herbicidal rate of 40% or more and less than 70%) | 5 (Herbicidal rate of 90% or more (almost completely withered)) | 4 (Herbicidal rate of 70% or more and less than 90%) | 4 (Herbicidal rate of 70% or more and less than 90%) | 5 (Herbicidal rate of 90% or more (almost completely withered)) | 5 (Herbicidal rate of 90% or more (almost completely withered)) | 5 (Herbicidal rate of 90% or more (almost completely withered)) |  |  |  |  |  | 
2 | Cc1nn(C)c(=O)c(-c2c(-c3ccc(C(F)(F)F)cc3F)sc3c(Cl)cccc23)c1O [4-037] | 3 (Herbicidal rate of 40% or more and less than 70%) | 1 (Herbicidal rate of 5% or more and less than 20%) | 0 (Herbicidal rate of 5% or less (almost no effect)) | 0 (Herbicidal rate of 5% or less (almost no effect)) | 2 (Herbicidal rate of 20% or more and less than 40%) | 0 (Herbicidal rate of 5% or less (almost no effect)) | 0 (Herbicidal rate of 5% or less (almost no effect)) | 0 (Herbicidal rate of 5% or less (almost no effect)) | 0 (Herbicidal rate of 5% or less (almost no effect)) | 5 (Herbicidal rate of 90% or more (almost completely withered)) | 5 (Herbicidal rate of 90% or more (almost completely withered)) | 5 (Herbicidal rate of 90% or more (almost completely withered)) | 5 (Herbicidal rate of 90% or more (almost completely withered)) | 4 (Herbicidal rate of 70% or more and less than 90%) | 0 (Herbicidal rate of 5% or less (almost no effect)) |  |  |  |  |  | 
3 | Cc1ccccc1-c1sc2c(Cl)cccc2c1-c1c(O)c(C)nn(C)c1=O [4-060] | 3 (Herbicidal rate of 40% or more and less than 70%) | 1 (Herbicidal rate of 5% or more and less than 20%) | 3 (Herbicidal rate of 40% or more and less than 70%) | 0 (Herbicidal rate of 5% or less (almost no effect)) | 0 (Herbicidal rate of 5% or less (almost no effect)) | 0 (Herbicidal rate of 5% or less (almost no effect)) | 0 (Herbicidal rate of 5% or less (almost no effect)) | 0 (Herbicidal rate of 5% or less (almost no effect)) | 0 (Herbicidal rate of 5% or less (almost no effect)) | 4 (Herbicidal rate of 70% or more and less than 90%) | 0 (Herbicidal rate of 5% or less (almost no effect)) | 2 (Herbicidal rate of 20% or more and less than 40%) | 0 (Herbicidal rate of 5% or less (almost no effect)) | 4 (Herbicidal rate of 70% or more and less than 90%) | 0 (Herbicidal rate of 5% or less (almost no effect)) |  |  |  |  |  | 
4 | CCCCOc1cccc(-c2sc3c(Cl)cccc3c2-c2c(OC(=O)CCC)c(C)nn(C)c2=O)c1 [4-069] | 4 (Herbicidal rate of 70% or more and less than 90%) | 3 (Herbicidal rate of 40% or more and less than 70%) | 3 (Herbicidal rate of 40% or more and less than 70%) | 0 (Herbicidal rate of 5% or less (almost no effect)) | 0 (Herbicidal rate of 5% or less (almost no effect)) | 0 (Herbicidal rate of 5% or less (almost no effect)) | 0 (Herbicidal rate of 5% or less (almost no effect)) | 0 (Herbicidal rate of 5% or less (almost no effect)) | 0 (Herbicidal rate of 5% or less (almost no effect)) | 0 (Herbicidal rate of 5% or less (almost no effect)) | 0 (Herbicidal rate of 5% or less (almost no effect)) | 0 (Herbicidal rate of 5% or less (almost no effect)) | 0 (Herbicidal rate of 5% or less (almost no effect)) | 4 (Herbicidal rate of 70% or more and less than 90%) | 4 (Herbicidal rate of 70% or more and less than 90%) |  |  |  |  |  | 
5 | CCCC(=O)Oc1c(C)nn(C)c(=O)c1-c1c(-c2ccccc2OCc2ccccc2)sc2c(Cl)cccc12 [4-085] | 2 (Herbicidal rate of 20% or more and less than 40%) | 0 (Herbicidal rate of 5% or less (almost no effect)) | 2 (Herbicidal rate of 20% or more and less than 40%) |  |  |  |  |  |  |  |  |  |  |  |  | 0 (Herbicidal rate of 5% or less (almost no effect)) | 0 (Herbicidal rate of 5% or less (almost no effect)) | 3 (Herbicidal rate of 40% or more and less than 70%) | 0 (Herbicidal rate of 5% or less (almost no effect)) | 0 (Herbicidal rate of 5% or less (almost no effect)) | Herbicidal effect by foliage application, K: Italian ryegrass (Italian ryegrass): 0 (Herbicidal rate of 5% or less (almost no effect)); Herbicidal effect by foliage application, L: windgrass (windgrass): 0 (Herbicidal rate of 5% or less (almost no effect)); Herbicidal effect by foliage application, M: velvetleaf (velvetleaf): 0 (Herbicidal rate of 5% or less (almost no effect)); Herbicidal effect by foliage application, N: redroot pigweed (redroot pigweed): 0 (Herbicidal rate of 5% or less (almost no effect)); Herbicidal effect by foliage application, O: lambsquarters (lambsquarters): 0 (Herbicidal rate of 5% or less (almost no effect)); Herbicidal effect by foliage application, P: chickweed (chickweed): 4 (Herbicidal rate of 70% or more and less than 90%); Herbicidal effect by foliage application, R: persian speedwell (persian speedwell): 2 (Herbicidal rate of 20% or more and less than 40%)
6 | CCSc1ccccc1-c1sc2c(Cl)cccc2c1-c1c(O)c(C)nn(C)c1=O [4-090] | 5 (Herbicidal rate of 90% or more (almost completely withered)) | 3 (Herbicidal rate of 40% or more and less than 70%) | 2 (Herbicidal rate of 20% or more and less than 40%) |  |  |  |  |  |  |  |  |  |  |  |  | 4 (Herbicidal rate of 70% or more and less than 90%) | 3 (Herbicidal rate of 40% or more and less than 70%) | 3 (Herbicidal rate of 40% or more and less than 70%) | 0 (Herbicidal rate of 5% or less (almost no effect)) | 0 (Herbicidal rate of 5% or less (almost no effect)) | Herbicidal effect by foliage application, K: Italian ryegrass (Italian ryegrass): 0 (Herbicidal rate of 5% or less (almost no effect)); Herbicidal effect by foliage application, L: windgrass (windgrass): 0 (Herbicidal rate of 5% or less (almost no effect)); Herbicidal effect by foliage application, M: velvetleaf (velvetleaf): 0 (Herbicidal rate of 5% or less (almost no effect)); Herbicidal effect by foliage application, N: redroot pigweed (redroot pigweed): 3 (Herbicidal rate of 40% or more and less than 70%); Herbicidal effect by foliage application, O: lambsquarters (lambsquarters): 0 (Herbicidal rate of 5% or less (almost no effect)); Herbicidal effect by foliage application, P: chickweed (chickweed): 0 (Herbicidal rate of 5% or less (almost no effect)); Herbicidal effect by foliage application, R: persian speedwell (persian speedwell): 1 (Herbicidal rate of 5% or more and less than 20%)
